The results in this text go back to US9751858B2, “3-heteroaroylamino-propionic acid derivatives and their use as pharmaceuticals” (SANOFI, priority 2011, dated 2017).

Usually IC50 stands for the concentration at which inhibition is half-maximal.

In this assay the target is T1, Recombinant human cathepsin A (Homo sapiens, UniProt P10619).
T1 construct: Recombinant human cathepsin A (residues 29-480, with a C-terminal 10-His tag); 10-His (C); purchased R&D Systems 1049-SE
T1 sequence (P10619 29-326 limits assumed): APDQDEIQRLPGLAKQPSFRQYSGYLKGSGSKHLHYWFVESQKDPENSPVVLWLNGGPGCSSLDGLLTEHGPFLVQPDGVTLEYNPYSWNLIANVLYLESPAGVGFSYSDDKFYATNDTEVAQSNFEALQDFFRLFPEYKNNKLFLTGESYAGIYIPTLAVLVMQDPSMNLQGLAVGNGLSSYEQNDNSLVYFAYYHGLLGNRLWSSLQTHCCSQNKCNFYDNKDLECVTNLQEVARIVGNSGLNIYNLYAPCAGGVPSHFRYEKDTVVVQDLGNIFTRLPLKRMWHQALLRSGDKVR
T1 sequence (P10619 327-480 limits assumed): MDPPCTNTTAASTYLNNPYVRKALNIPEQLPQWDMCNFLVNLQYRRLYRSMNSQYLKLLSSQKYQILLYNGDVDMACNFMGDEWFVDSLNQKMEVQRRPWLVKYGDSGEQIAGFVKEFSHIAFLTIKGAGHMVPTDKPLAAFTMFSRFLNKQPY
Put plainly: Cathepsin A inhibitory activity. It is filed as biochemical. Conditions: activated recombinant human cathepsin A 833 ng/ml, Bodipy FL-labeled bradykinin 2 μM, pH 5.5, 15 min room temperature. On the procedure:
a) Cathepsin a Inhibitory Activity
Briefly, cathepsin A was incubated at 10 μg/ml with cathepsin L at 1 μg/ml in activation buffer (25 mM 2-(morpholin-4-yl)-ethanesulfonic acid (MES), pH 6.0, containing 5 mM dithiothreitol (DTT)) for 15 min at 37° C.
The activated cathepsin A was diluted in assay buffer (25 mM MES, pH 5.5, containing 5 mM DTT) and mixed with the test compound (dissolved in assay buffer containing (v/v) 3% DMSO) or, in the control experiments, with the vehicle in a multiple assay plate. After incubation for 15 min at room temperature, as substrate then bradykinin carrying an N-terminal ®Bodipy FL (4,4-difluoro-5,7-dimethyl-4-bora-3a,4a-diaza-s-indacene-3-propionyl) label (JPT Peptide Technologies GmbH; dissolved in assay buffer) was added to the mixture. […] After incubation for 15 min at room temperature the reaction was stopped by the addition of stop buffer (130 mM 2-(4-(2-hydroxy-ethyl)-piperazin-1-yl)-ethanesulfonic acid, pH 7.4, containing (v/v) 0.013%® Triton X-100, 0.13% Coating Reagent 3 (Caliper Life Sciences), 6.5% DMSO and 20 μM ebelactone B (Sigma, # E0886)).
Uncleaved substrate and product were then separated by a microfluidic capillary electrophoresis on a LabChip® 3000 Drug Discovery System (12-Sipper-Chip; Caliper Life Sciences) and quantified by determination of the respective peak areas. Substrate turnover was calculated by dividing product peak area by the sum of substrate and product peak areas, and the enzyme activity and the inhibitory effect of the test compound thus quantified.

Take `CC(C)c1oc(-c2ccccc2)nc1C(=O)N[C@@H](CC(=O)O)c1ccccc1` [Example 22, (S)-3-[(5-Isopropyl-2-phenyl-oxazole-4-carbonyl)-amino]-3-phenyl-propionic acid]: the IC50 amounted to 1.04 µM.

For `O=C(O)C[C@H](NC(=O)CCc1nc(-c2ccccc2F)no1)c1ccc(F)cc1` [Example 58, (S)-3-(4-Fluoro-phenyl)-3-{3-[3-(2-fluoro-phenyl)-[1,2,4]oxadiazol-5-yl]-propionylamino}-propionic acid], the concentration for half-maximal inhibition (IC50) is > 10 µM.

For the compound `CC(C)c1oc(-c2ccccc2)nc1C(=O)N[C@@H](CC(=O)O)c1ccccc1Cl` [Example 67, (S)-3-(2-Chloro-phenyl)-3-[(5-isopropyl-2-phenyl-oxazole-4-carbonyl)-amino]-propionic acid], the half-inhibitory concentration (IC50) worked out at 1.4 µM.

Turning to `O=C(O)C[C@@H](Cc1ccccc1)NC(=O)c1noc(-c2ccccc2F)n1` [Example 13, (R)-3-{[5-(2-Fluoro-phenyl)-[1,2,4]oxadiazole-3-carbonyl]-amino}-4-phenyl-butyric acid], the IC50 was 0.316 µM.

As to `O=C(O)C[C@H](NC(=O)c1noc(-c2cccc(F)c2F)n1)c1ccccc1C(F)(F)F` [Example 101, (S)-3-{[5-(2,3-Difluoro-phenyl)-[1,2,4]oxadiazole-3-carbonyl]-amino}-3-(2-trifluoromethyl-phenyl)-propionic acid], the half-inhibitory concentration (IC50) is > 10 µM.

As to `Cc1ccccc1[C@H](CC(=O)O)NC(=O)c1nn(C)cc1NS(=O)(=O)Cc1ccccc1` [Example 117, (S)-3-[(1-Methyl-4-phenylmethanesulfonylamino-1H-pyrazole-3-carbonyl)-amino]-3-o-tolyl-propionic acid], the IC50 is > 10 µM.

With `CCCC1CCCCN1C(=O)c1cc(C(=O)N[C@@H](CC(=O)O)c2ccccc2)nn1CC` (stereo partly drawn) [Example 100, (S)-3-{[1-Ethyl-5-(2-propyl-piperidine-1-carbonyl)-1H-pyrazole-3-carbonyl]-amino}-3-phenyl-propionic acid], the IC50 came out at 4.75 µM.

Regarding `Cc1oc(-c2ccccc2F)nc1C(=O)N[C@@](C)(CC(=O)O)c1ccccc1` [Example 30, (S)-3-{[2-(2-Fluoro-phenyl)-5-methyl-oxazole-4-carbonyl]-amino}-3-phenyl-butyric acid], the 50% inhibitory concentration (IC50) was > 10 µM.

In the case of `CCCS(=O)(=O)Nc1cn(C)nc1C(=O)N[C@@H](CC(=O)O)c1ccccc1C` [Example 64, (S)-3-{[1-Methyl-4-(propane-1-sulfonylamino)-1H-pyrazole-3-carbonyl]-amino}-3-o-tolyl-propionic acid], the IC50 was > 10 µM.

With `Cc1ccccc1[C@H](CC(=O)O)NC(=O)c1nc(-c2ccccc2)oc1C(F)(F)F` [Example 77, (S)-3-[(2-Phenyl-5-trifluoromethyl-oxazole-4-carbonyl)-amino]-3-o-tolyl-propionic acid], the half-inhibitory concentration (IC50) came to 1.91 µM.

Turning to `Cc1oc(-c2ccccc2F)nc1C(=O)N[C@@H](CC(=O)O)c1cccc(Cl)c1` [Example 61, (S)-3-(3-Chloro-phenyl)-3-{[2-(2-fluoro-phenyl)-5-methyl-oxazole-4-carbonyl]-amino}-propionic acid], the IC50 is 0.189 µM.

As to `CC(C)c1oc(-c2ccccc2)nc1C(=O)N[C@@H](CC(=O)O)c1cccc(Cl)c1Cl` [Example 103, (S)-3-(2,3-Dichloro-phenyl)-3-[(5-isopropyl-2-phenyl-oxazole-4-carbonyl)-amino]-propionic acid], the IC50 worked out at 0.598 µM.

With `Cc1oc(-c2ccccc2F)nc1C(=O)N[C@@H](CC(=O)O)c1ccccc1F` [Example 35, (S)-3-(2-Fluoro-phenyl)-3-{[2-(2-fluoro-phenyl)-5-methyl-oxazole-4-carbonyl]-amino}-propionic acid], the IC50 turned out to be 5.14 µM.

As to `Cc1oc(-c2ccccc2)nc1C(=O)N[C@@H](CC(=O)O)c1ccccc1C(F)(F)F` [Example 78, (S)-3-[(5-Methyl-2-phenyl-oxazole-4-carbonyl)-amino]-3-(2-trifluoromethyl-phenyl)-propionic acid], the concentration for half-maximal inhibition (IC50) turned out to be 8.47 µM.

For the compound `Cc1ccccc1[C@H](CC(=O)O)NC(=O)c1noc(-c2ccccc2F)n1` [Example 15, (S)-3-{[5-(2-Fluoro-phenyl)-[1,2,4]oxadiazole-3-carbonyl]-amino}-3-o-tolyl-propionic acid], the IC50 came to 4.92 µM.

In the case of `Cc1ccccc1[C@H](CC(=O)O)NC(=O)c1cc(S(=O)(=O)N(C)C)oc1C` [Example 46, (S)-3-[(5-Dimethylsulfamoyl-2-methyl-furan-3-carbonyl)-amino]-3-o-tolyl-propionic acid], the IC50 was > 10 µM.

As for `CCc1nc(C(=O)N[C@@H](CC(=O)O)c2ccccc2)nn1-c1ccccc1Cl` [Example 56, (S)-3-{[1-(2-Chloro-phenyl)-5-ethyl-1H-[1,2,4]triazole-3-carbonyl]-amino}-3-phenyl-propionic acid], the half-inhibitory concentration (IC50) amounted to 1.68 µM.

As for `Cc1cccc([C@H](CC(=O)O)NC(=O)c2noc(-c3cccc(F)c3F)n2)c1` [Example 39, (S)-3-{[5-(2,3-Difluoro-phenyl)-[1,2,4]oxadiazole-3-carbonyl]-amino}-3-m-tolyl-propionic acid], the half-maximal inhibitory concentration (IC50) is 9.37 µM.

With `C[C@@](CC(=O)O)(NC(=O)c1noc(-c2ccccc2F)n1)c1ccccc1` [Example 14, (S)-3-{[5-(2-Fluoro-phenyl)-[1,2,4]oxadiazole-3-carbonyl]-amino}-3-phenyl-butyric acid], the IC50 worked out at 17.4 µM.

With `Cn1cc(NS(=O)(=O)CC2CCCCC2)c(C(=O)N[C@@H](CC(=O)O)c2ccccc2)n1` [Example 109, (S)-3-[(4-Cyclohexylmethanesulfonylamino-1-methyl-1H-pyrazole-3-carbonyl)-amino]-3-phenyl-propionic acid], the concentration for half-maximal inhibition (IC50) was > 10 µM.

Turning to `CCc1nc(C(=O)N[C@@H](CC(=O)O)c2ccccc2C)nn1-c1c(Cl)cccc1Cl` [Example 108, (S)-3-{[1-(2,6-Dichloro-phenyl)-5-ethyl-1H-[1,2,4]triazole-3-carbonyl]-amino}-3-o-tolyl-propionic acid], the IC50 turned out to be 0.35 µM.

On to `O=C(O)C[C@H](NC(=O)c1nc(-c2ccccc2)n(-c2ccccc2)n1)c1ccc(F)cc1` [Example 91, (S)-3-[(1,5-Diphenyl-1H-[1,2,4]triazole-3-carbonyl)-amino]-3-(4-fluoro-phenyl)-propionic acid], for which the 50% inhibitory concentration (IC50) came to 0.517 µM.

As to `CCc1nc(C(=O)N[C@@H](CC(=O)O)c2ccccc2C)nn1-c1ccccc1Cl` [Example 70, (S)-3-{[1-(2-Chloro-phenyl)-5-ethyl-1H-[1,2,4]triazole-3-carbonyl]-amino}-3-o-tolyl-propionic acid], the IC50 was found to be 0.166 µM.

As for `CC(C)c1oc(-c2ccccc2)nc1C(=O)N[C@@H](CC(=O)O)c1ccc(Cl)cc1Cl` [Example 105, (S)-3-(2,4-Dichloro-phenyl)-3-[(5-isopropyl-2-phenyl-oxazole-4-carbonyl)-amino]-propionic acid], the half-maximal inhibitory concentration (IC50) was found to be 9.21 µM.

For the compound `O=C(O)C[C@H](NC(=O)CCc1nc(-c2ccccc2F)no1)c1ccc(C(F)(F)F)cc1` [Example 111, (S)-3-{3-[3-(2-Fluoro-phenyl)-[1,2,4]oxadiazol-5-yl]-propionylamino}-3-(4-trifluoromethyl-phenyl)-propionic acid], the 50% inhibitory concentration (IC50) was > 10 µM.

With `CCCC1CCCCN1C(=O)c1cc(C(=O)N[C@@H](CC(=O)O)c2cccc(C)c2)nn1CC` (stereo partly drawn) [Example 116, (S)-3-{[1-Ethyl-5-(2-propyl-piperidine-1-carbonyl)-1H-pyrazole-3-carbonyl]-amino}-3-m-tolyl-propionic acid], the IC50 was 4.56 µM.

`Cc1cccc([C@H](CC(=O)O)NC(=O)c2noc(-c3ccccc3F)n2)c1` [Example 16, (S)-3-{[5-(2-Fluoro-phenyl)-[1,2,4]oxadiazole-3-carbonyl]-amino}-3-m-tolyl-propionic acid]: the concentration for half-maximal inhibition (IC50) was > 10 µM.

Turning to `Cc1ccc([C@H](CC(=O)O)NC(=O)c2noc(-c3cccc(F)c3F)n2)cc1` [Example 38, (S)-3-{[5-(2,3-Difluoro-phenyl)-[1,2,4]oxadiazole-3-carbonyl]-amino}-3-p-tolyl-propionic acid], the half-inhibitory concentration (IC50) amounted to 6 µM.

As to `O=C(O)C[C@H](NC(=O)c1nc(-c2ccccc2)oc1C(F)(F)F)c1cccc(Cl)c1` [Example 96, (S)-3-(3-Chloro-phenyl)-3-[(2-phenyl-5-trifluoromethyl-oxazole-4-carbonyl)-amino]-propionic acid], the IC50 was found to be 10.3 µM.
